Experimental data from patent publication US10029992B2, “Diaminotriazine compounds and their use as herbicides” (BASF SE, priority 2014, dated 2018).

What was measured:
AMARE [1] = assay: Greenhouse experiment, pre-emergence treatment; type: in vivo, Amaranthus retroflexus; conditions: pre-emergence method
Description: (§1) The seeds of the test plants were sown separately for each species. For the pre-emergence treatment, the active ingredients, which had been suspended or emulsified in water, were applied directly after sowing by means of finely distributing nozzles. The containers were irrigated gently to promote germination and growth and subsequently covered with transparent plastic hoods until the plants had rooted. This cover caused uniform germination of the test plants, unless this had been impaired by the active ingredients. Depending on the species, the plants were kept at 10-25° C. or 20-35° C., respectively. The test period extended over 2 to 4 weeks. During this time, the plants were tended, and their response to the individual treatments was evaluated. Evaluation was carried out using a scale from 0 to 100. 100 means no emergence of the plants, or complete destruction of at least the aerial moieties, and 0 means no damage, or normal course of growth. A moderate herbicidal activity is given at values of at least 60, a good herbicidal activity is given at values of at least 70, and a very good herbicidal activity is given at values of at least 85. […] [table]

ABUTH [2] = assay: Greenhouse experiment, pre-emergence treatment; type: in vivo, Abutilon theophrasti; conditions: pre-emergence method
Description: (§2) The culture containers used were plastic flowerpots containing loamy sand with approximately 3.0% of humus as the substrate. The seeds of the test plants were sown separately for each species.
(§3) For the pre-emergence treatment, the active ingredients, which had been suspended or emulsified in water, were applied directly after sowing by means of finely distributing nozzles. The containers were irrigated gently to promote germination and growth and subsequently covered with transparent plastic hoods until the plants had rooted. This cover caused uniform germination of the test plants, unless this had been impaired by the active ingredients.
(§4) Depending on the species, the plants were kept at 10-25° C. or 20-35° C., respectively.
(§5) The test period extended over 2 to 4 weeks. During this time, the plants were tended, and their response to the individual treatments was evaluated.
(§6) Evaluation was carried out using a scale from 0 to 100. 100 means no emergence of the plants, or complete destruction of at least the aerial moieties, and 0 means no damage, or normal course of growth. A moderate herbicidal activity is given at values of at least 60, a good herbicidal activity is given at values of at least 70, and a very good herbicidal activity is given at values of at least 85.
(§7) The plants used in the greenhouse experiments were of the following species: […]

APESV = assay: Greenhouse experiment, pre-emergence treatment; type: in vivo, Apera spica-venti; conditions: pre-emergence method
Description: as §2, §3, §4, §5, §6, §7

ALOMY = assay: Greenhouse experiment, pre-emergence treatment; type: in vivo, Alopecurus myosuroides; conditions: pre-emergence method
Description: as §2, §3, §4, §5, §6, §7

SETFA [3] = assay: Greenhouse experiment, pre-emergence treatment; type: in vivo, Setaria faberi; conditions: pre-emergence method
Description: as §1

ECHCG = assay: Greenhouse experiment, pre-emergence treatment; type: in vivo, Echinochloa crus-galli; conditions: pre-emergence method
Description: as §2, §3, §4, §5, §6, §7

AMARE [4] = assay: Greenhouse experiment, post-emergence treatment; type: in vivo, Amaranthus retroflexus; conditions: post-emergence method, application rate 125 g/ha
Method: (§8) The seeds of the test plants were sown separately for each species. […] For this purpose, the test plants were either sown directly and grown in the same containers, or they were first grown separately as seedlings and transplanted into the test containers a few days prior to treatment. Depending on the species, the plants were kept at 10-25° C. or 20-35° C., respectively. The test period extended over 2 to 4 weeks. During this time, the plants were tended, and their response to the individual treatments was evaluated. Evaluation was carried out using a scale from 0 to 100. 100 means no emergence of the plants, or complete destruction of at least the aerial moieties, and 0 means no damage, or normal course of growth. A moderate herbicidal activity is given at values of at least 60, a good herbicidal activity is given at values of at least 70, and a very good herbicidal activity is given at values of at least 85. […] [table]

ABUTH [5] = assay: Greenhouse experiment, post-emergence treatment; type: in vivo, Abutilon theophrasti; conditions: post-emergence method, application rate 125 g/ha
Method: as §8

SETFA [6] = assay: Greenhouse experiment, post-emergence treatment; type: in vivo, Setaria faberi; conditions: post-emergence method, application rate 125 g/ha
Method: as §8

## Cc1cc(C)cc(Oc2cccc(F)c2Nc2nc(N)nc(C(C)(C)C)n2)c1 [Example 16]
AMARE [1]; application rate 2000 g/ha
  herbicidal activity against AMARE: very good (a very good herbicidal activity is given at values of at least 85)
ABUTH [2]; application rate 2000 g/ha
  herbicidal activity against ABUTH: very good (a very good herbicidal activity is given at values of at least 85)
APESV; application rate 2000 g/ha
  herbicidal activity against APESV: very good (a very good herbicidal activity is given at values of at least 85)

## CC(C)(F)c1nc(N)nc(Nc2c(F)cccc2Oc2ccccc2)n1 [Example 25]
ALOMY; application rate 0.25 kg/ha
  herbicidal activity against ALOMY: very good (a very good herbicidal activity is given at values of at least 85)
AMARE [1]; application rate 0.25 kg/ha
  herbicidal activity against AMARE: very good (a very good herbicidal activity is given at values of at least 85)
APESV; application rate 0.25 kg/ha
  herbicidal activity against APESV: very good (a very good herbicidal activity is given at values of at least 85)

## COC(C)(C)c1nc(N)nc(Nc2c(F)cccc2Oc2cc(C)cc(C)c2)n1 [Example 36]
SETFA [3]; application rate 1000 g/ha
  herbicidal activity against SEFTA: very good (a very good herbicidal activity is given at values of at least 85)
ECHCG; application rate 1000 g/ha
  herbicidal activity against ECHCG: very good (a very good herbicidal activity is given at values of at least 85)
ALOMY; application rate 0.25 kg/ha
  herbicidal activity against ALOMY: good (a good herbicidal activity is given at values of at least 70)
APESV; application rate 0.25 kg/ha
  herbicidal activity against APESV: very good (a very good herbicidal activity is given at values of at least 85)
APESV; application rate 1000 g/ha
  herbicidal activity against APESV: very good (a very good herbicidal activity is given at values of at least 85)

## CC(C)(F)c1nc(N)nc(Nc2c(F)cccc2Oc2cc(F)cc(C(F)(F)F)c2)n1 [Example 53]
AMARE [4]
  herbicidal activity against AMARE: very good (a very good herbicidal activity is given at values of at least 85)
ABUTH [5]
  herbicidal activity against ABUTH: very good (a very good herbicidal activity is given at values of at least 85)
SETFA [6]
  herbicidal activity against SETFA: very good (a very good herbicidal activity is given at values of at least 85)

## CC(C)(F)c1nc(N)nc(Nc2c(F)cccc2Oc2cc(F)cc(Cl)c2)n1 [Example 54]
AMARE [4]
  herbicidal activity against AMARE: very good (a very good herbicidal activity is given at values of at least 85)
ABUTH [5]
  herbicidal activity against ABUTH: very good (a very good herbicidal activity is given at values of at least 85)
SETFA [6]
  herbicidal activity against SETFA: very good (a very good herbicidal activity is given at values of at least 85)

## CC(C)(F)c1nc(N)nc(Nc2c(F)cccc2Oc2cc(Br)cc(Br)c2)n1 [Example 55]
AMARE [4]
  herbicidal activity against AMARE: very good (a very good herbicidal activity is given at values of at least 85)
ABUTH [5]
  herbicidal activity against ABUTH: very good (a very good herbicidal activity is given at values of at least 85)
SETFA [6]
  herbicidal activity against SETFA: very good (a very good herbicidal activity is given at values of at least 85)

## CC(C)(F)c1nc(N)nc(Nc2c(F)cccc2Oc2cc(F)cc(Br)c2)n1 [Example 56]
AMARE [4]
  herbicidal activity against AMARE: very good (a very good herbicidal activity is given at values of at least 85)
ABUTH [5]
  herbicidal activity against ABUTH: good (a good herbicidal activity is given at values of at least 70)
SETFA [6]
  herbicidal activity against SETFA: very good (a very good herbicidal activity is given at values of at least 85)

## COc1cc(Cl)cc(Oc2cccc(F)c2Nc2nc(N)nc(C(C)(C)F)n2)c1 [Example 57]
AMARE [4]
  herbicidal activity against AMARE: very good (a very good herbicidal activity is given at values of at least 85)
ABUTH [5]
  herbicidal activity against ABUTH: very good (a very good herbicidal activity is given at values of at least 85)
SETFA [6]
  herbicidal activity against SETFA: very good (a very good herbicidal activity is given at values of at least 85)

## CC(C)(F)c1nc(N)nc(Nc2c(F)cccc2Oc2cc(Cl)cc(Br)c2)n1 [Example 58]
AMARE [4]
  herbicidal activity against AMARE: very good (a very good herbicidal activity is given at values of at least 85)
ABUTH [5]
  herbicidal activity against ABUTH: very good (a very good herbicidal activity is given at values of at least 85)
SETFA [6]
  herbicidal activity against SETFA: very good (a very good herbicidal activity is given at values of at least 85)

## CC(C)(F)c1nc(N)nc(Nc2c(F)cccc2Oc2cc(F)cc(C#N)c2)n1 [Example 59]
AMARE [4]
  herbicidal activity against AMARE: very good (a very good herbicidal activity is given at values of at least 85)
ABUTH [5]
  herbicidal activity against ABUTH: very good (a very good herbicidal activity is given at values of at least 85)
SETFA [6]
  herbicidal activity against SETFA: very good (a very good herbicidal activity is given at values of at least 85)

## CC(C)(F)c1nc(N)nc(Nc2c(F)cccc2Oc2cc(Br)cc(OC(F)(F)F)c2)n1 [Example 60]
AMARE [4]
  herbicidal activity against AMARE: very good (a very good herbicidal activity is given at values of at least 85)
ABUTH [5]
  herbicidal activity against ABUTH: very good (a very good herbicidal activity is given at values of at least 85)
SETFA [6]
  herbicidal activity against SETFA: very good (a very good herbicidal activity is given at values of at least 85)

## COc1cc(Br)cc(Oc2cccc(F)c2Nc2nc(N)nc(C(C)(C)F)n2)c1 [Example 61]
AMARE [4]
  herbicidal activity against AMARE: very good (a very good herbicidal activity is given at values of at least 85)
ABUTH [5]
  herbicidal activity against ABUTH: very good (a very good herbicidal activity is given at values of at least 85)
SETFA [6]
  herbicidal activity against SETFA: very good (a very good herbicidal activity is given at values of at least 85)

## COc1cc(F)cc(Oc2cccc(F)c2Nc2nc(N)nc(C(C)(C)F)n2)c1 [Example 62]
AMARE [4]
  herbicidal activity against AMARE: very good (a very good herbicidal activity is given at values of at least 85)
ABUTH [5]
  herbicidal activity against ABUTH: very good (a very good herbicidal activity is given at values of at least 85)
SETFA [6]
  herbicidal activity against SETFA: very good (a very good herbicidal activity is given at values of at least 85)

## CC(C)(F)c1nc(N)nc(Nc2c(F)cccc2Oc2cc(F)cc(OC(F)F)c2)n1 [Example 82]
SETFA [3]; application rate 125 g/ha
  herbicidal activity against SETFA: very good (a very good herbicidal activity is given at values of at least 85)
AMARE [1]; application rate 125 g/ha
  herbicidal activity against AMARA: very good (a very good herbicidal activity is given at values of at least 85)
ABUTH [2]; application rate 125 g/ha
  herbicidal activity against ABUTH: very good (a very good herbicidal activity is given at values of at least 85)

## CC(C)Oc1cc(F)cc(Oc2cccc(F)c2Nc2nc(N)nc(C(C)(C)F)n2)c1 [Example 99]
ECHCG; application rate 500 g/ha
  herbicidal activity against ECHCG: very good (a very good herbicidal activity is given at values of at least 85)
ALOMY; application rate 500 g/ha
  herbicidal activity against ALOMY: very good (a very good herbicidal activity is given at values of at least 85)
AMARE [1]; application rate 500 g/ha
  herbicidal activity against AMARE: very good (a very good herbicidal activity is given at values of at least 85)

## CC(C)(F)c1nc(N)nc(Nc2c(F)cccc2Oc2cc(F)cc(I)c2)n1 [Example 101]
SETFA [3]; application rate 250 g/ha
  herbicidal activity against SEFTA: very good (a very good herbicidal activity is given at values of at least 85)
ECHCG; application rate 250 g/ha
  herbicidal activity against ECHCG: very good (a very good herbicidal activity is given at values of at least 85)
ALOMY; application rate 250 g/ha
  herbicidal activity against ALOMY: good (a good herbicidal activity is given at values of at least 70)
